Assays:
[1] = test system: IgM monoclonal antibody B6.1; assay: competitive inhibition ELISA: binding of IgM MAb B6.1 to C. albicans mannan extract; design: species or system mouse; settings: FIG. 7
Experimental: (§1) These monoclonal antibodies are IgM B6.1 and IgG C3.1. The affinity of these monoclonal antibodies for the synthesized propyl glycosides was determined in a competitive inhibition ELISA. The monoclonal antibodies, MAb B6.1 (IgM) and MAb C3.1 (IgG3) were produced as concentrated tissue culture supernatants and diluted ˜1:40,000 (B6.1) and ˜1:2000 (C3.1). C. albicans mannan obtained by 2-mercaptoethanol extraction of whole cells without subsequent affinity fractionation^27 was dissolved in PBS (10 μg/mL) and the solution was used to coat 96 well ELISA plates (100 μL, 18 h at 4° C.). The plate was washed five times with PBST containing Tween 20, 0.05% v/v) and blocked for 1 h at room temperature (2% BSA PBS, 100 μL). The monoclonal antibodies were mixed with inhibitor dissolved in PBST at concentrations in the range between 0.1 μM to 1 mM, and the resulting solutions were added to the coated microtitre plate in triplicate and incubated at room temperature for 18 h. The plate was washed with PBST (5×), and goat anti-mouse (IgG or IgM) antibody conjugated to horseradish peroxidase (diluted 1:2000, Kirkegaard and Perry Lab) in PBST (100 μL) was added and incubated for 1 h at room temperature. The plate was washed with PBST (5×), 3,3′,5,5′-tetramethylbenzidine (TMB, 100 μL, Kirkegaard and Perry Lab) was added, and after 2 minutes the colour reaction was stopped by the addition of 1M phosphoric acid (100 μL). Absorbance was read at 450 nm and percent inhibition was calculated relative to wells containing antibody without inhibitor, and the concentration of ligand that gives 50% inhibition is quoted as an IC50 value.

MAb C3.1 (IgG3) = assay: competitive inhibition ELISA: binding of IgG MAb C3.1 to C. albicans mannan extract; design: species or system mouse
Experimental: as §1, with “The plate was washed with PBST (5×), 3,3′,5,5′-tetramethylbenzidine (TMB, 100 μL, Kirkegaard and Perry Lab) was added, and after 2 minutes the colour reaction was stopped by the addition of 1M phosphoric acid (100 μL). Absorbance was read at 450 nm and percent inhibition was calculated relative to wells containing antibody without inhibitor, and the concentration of ligand that gives 50% inhibition is quoted as an IC50 value.” left out

Row | Molecule | affinity of IgM antibody B6.1 for propyl mannosides [1] | affinity / inhibition curve for the IgG antibody (MAb C3.1 (IgG3); FIG. 8) | affinity for the IgG antibody relative to the IgM MAb (MAb C3.1 (IgG3); FIG. 8 vs FIG. 7)
1 | CCCO[C@@H]1O[C@H](CO)[C@@H](O)[C@H](O)[C@@H]1O[C@@H]1O[C@H](CO)[C@@H](O)[C@H](O)[C@@H]1O [compound 17] | surprisingly high affinity | flattened binding curve | –
2 | CCCOC1OC(CO)C(O)C(O)C1OC1OC(CO)C(O)C(O)C1OC1OC(CO)C(O)C(O)C1O (centres unmarked) [compound 18] | surprisingly high affinity | – | two fold
3 | propyl (1-thio-β-D-mannopyranosyl)-(1→2)-β-D-mannopyranotrioside [compound 32] | falls between the tri and tetrasaccharide in affinity | – | –

Source: patent publication US7722890B2, “Synthetic anti-Candida albicans oligosaccharide based vaccines” (Theracarb, Inc., priority 2002, dated 2010)
